Experimental data published in US6191273A, “Substituted cyclic compounds and mixtures comprising same” (Isis Pharmaceuticals, Inc., priority 1998, dated 2001).

How the values were obtained:
E. coli imp- = E. coli imp- bacterial growth assay (Tier I antimicrobial); assay type: cell-based; conditions: Escherichia coli, read-out: inhibition in the E. coli procedure
Protocol: The strain E. coli imp- obtained from Spencer Benson (Sampson, B. A., Misra, R. & Benson, S. A., Genetics, 1989, 122, 491-501, Identification and characterization of a new gene of Escherichia coli K-12 involved in outer membrane permeability) is used in this bacterial growth assay. To initiate the exponential phase of bacterial growth prior to the assay, a sample of bacteria is grown for 6 hours in Mueller Hinton II Broth (BBL 12322) at 37° C. then re-inoculated into fresh media and grown overnight at 37° C. The bacterial cells are collected by centrifugation for 10 minutes at 3200 rpm, diluted and absorbance read at 595 nm. Bacteria diluted in 2× Mueller Hinton II Broth (75 μL) are added to the compound mixtures (75μL) for a total volume of 150 μL. The assays are performed in 96-well microplates with approximately 1×10^4 colony forming units (CFU) per well. The plates are incubated at 37° C. and growth monitored over a 24 hour period by measuring the optical density at 595 nm using a BioRad model 3550 UV microplate reader. The percentage of growth relative to a well containing no compound is determined. Ampicillin and tetracycline antibiotic controls are concurrently tested in each screening assay.
Compounds are assayed in duplicate at a single dose. […]

[1] = system: S. pyogenes [American Type Culture Collection (ATCC) # 14289]; assay: Streptococcus pyogenes bacterial growth assay (Tier I antimicrobial); assay type: cell-based; conditions: read-out: inhibition in the S. pyogenes procedure
Protocol: S. pyogenes [American Type Culture Collection (ATCC) # 14289] is used in this bacterial growth assay. To initiate the exponential phase of bacterial growth prior to the assay, a sample of bacteria is grown for 6 hours in Todd Hewitt Broth (Difco 0492-17-6) at 37° C. then re-inoculated into fresh media and grown overnight at 37° C. The bacterial cells are collected by centrifugation for 10 minutes at 3200 rpm, diluted and absorbance read at 595 nm. Bacteria diluted in 2× Todd-Hewitt Broth (75 μL) are added to the compound mixtures (75 μL) for a total volume of 150 μL. The assays are performed in 96-well microplates with approximately 1×10^4 colony forming units (CFU) per well. The plates are incubated at 37° C. and growth monitored over a 24 hour period by measuring the optical density at 595 nm using a BioRad model 3550 UV microplate reader. The percentage of growth relative to a well containing no test compound or library is determined. Ampicillin and tetracycline antibiotic controls are concurrently tested in each screening assay.
Compounds are assayed in duplicate at a single dose. Compounds which show inhibitory activity are re-tested in duplicate at multiple doses to determine minimum inhibitory concentration (MIC).

Row | SMILES | inhibition at 100 µM (E. coli imp-) | inhibition at 100 µM [1]
1 | NC(=O)CN(Cc1cccc(C(F)(F)F)c1)Cc1cccc(CN(CCNCCCO)Cc2cccc(C(F)(F)F)c2)n1 [Example 66] | 87% | 95%
2 | N=C(N)NCc1cccc(CN(CCNCCCO)Cc2cccc(C(F)(F)F)c2)n1 [Example 71] |  | 95%
